Measurements taken from ChEMBL document CHEMBL2434896, “Carbonic anhydrase inhibitors. Synthesis of heterocyclic 4-substituted pyridine-3-sulfonamide derivatives and their inhibition of the human cytosolic isozymes I and II and transmembrane tumor-associated isozymes IX and XII” (Eur J Med Chem, 2013).
Active and inactive are the calls of the source. The rule behind the calls is not given here.

Legend:
Carbonic anhydrase 9 = Carbonic anhydrase 9 (Homo sapiens, UniProt Q16790); assay: Inhibition of human carbonic anhydrase 9 after 15 mins by stopped flow CO2 hydration assay
COLO 205 = assay: Growth inhibition of human COLO205 cells at 10 uM after 48 hrs by sulforhodamine B assay; format: functional
HT-29 = assay: Growth inhibition of human HT-29 cells at 10 uM after 48 hrs by sulforhodamine B assay; format: functional; conditions: HT-29, 48 h, read-out: GI
786-0 = assay: Growth inhibition of human 786-0 cells at 10 uM after 48 hrs by sulforhodamine B assay; format: functional
UACC-62 = assay: Growth inhibition of human UACC62 cells at 10 uM after 48 hrs by sulforhodamine B assay; format: functional; conditions: UACC-62, 48 h, read-out: GI
HCC 2998 = assay: Growth inhibition of human HCC2998 cells at 10 uM after 48 hrs by sulforhodamine B assay; format: functional
UO-31 = assay: Growth inhibition of human UO31 cells at 10 uM after 48 hrs by sulforhodamine B assay; format: functional; conditions: UO-31, 48 h, read-out: GI
RPMI-8226 = assay: Growth inhibition of human RPMI8226 cells at 10 uM after 48 hrs by sulforhodamine B assay; format: functional; conditions: RPMI-8226, 48 h, read-out: GI
ACHN = assay: Growth inhibition of human ACHN cells at 10 uM after 48 hrs by sulforhodamine B assay; format: functional
PC-3 = assay: Growth inhibition of human PC3 cells at 10 uM after 48 hrs by sulforhodamine B assay; format: functional; conditions: PC-3, 48 h, read-out: GI
RXF 393 = assay: Growth inhibition of human RXF393 cells at 10 uM after 48 hrs by sulforhodamine B assay; format: functional
A498 = assay: Growth inhibition of human A498 cells at 10 uM after 48 hrs by sulforhodamine B assay; format: functional
CAKI-1 = assay: Growth inhibition of human CAKI-1 cells at 10 uM after 48 hrs by sulforhodamine B assay; format: functional
OVCAR-5 = assay: Growth inhibition of human OVCAR5 cells at 10 uM after 48 hrs by sulforhodamine B assay; format: functional
SR = assay: Growth inhibition of human SR cells at 10 uM after 48 hrs by sulforhodamine B assay; format: functional; conditions: read-out: GI
HCT-15 = assay: Growth inhibition of human HCT15 cells at 10 uM after 48 hrs by sulforhodamine B assay; format: functional
SK-MEL-28 = assay: Growth inhibition of human SK-MEL-28 cells at 10 uM after 48 hrs by sulforhodamine B assay; format: functional, cell-based
NCI-H460 = assay: Growth inhibition of human NCI-H460 cells at 10 uM after 48 hrs by sulforhodamine B assay; format: functional
Hs-578T = assay: Growth inhibition of human Hs 578T cells at 10 uM after 48 hrs by sulforhodamine B assay; format: functional
DU-145 = assay: Growth inhibition of human DU145 cells at 10 uM after 48 hrs by sulforhodamine B assay; format: functional
HCT-116 = assay: Growth inhibition of human HCT116 cells at 10 uM after 48 hrs by sulforhodamine B assay; format: functional
MOLT-4 = assay: Growth inhibition of human MOLT4 cells at 10 uM after 48 hrs by sulforhodamine B assay; format: functional; conditions: MOLT-4, 48 h, read-out: GI
HL-60(TB) = assay: Growth inhibition of human HL-60(TB) cells at 10 uM after 48 hrs by sulforhodamine B assay; format: functional; conditions: HL-60, 48 h, read-out: GI
MDA-MB-231 = assay: Growth inhibition of human MDA-MB-231 cells at 10 uM after 48 hrs by sulforhodamine B assay; format: functional
HOP-62 = assay: Growth inhibition of human HOP62 cells at 10 uM after 48 hrs by sulforhodamine B assay; format: functional
SNB-75 = assay: Growth inhibition of human SNB75 cells at 10 uM after 48 hrs by sulforhodamine B assay; format: functional
SK-MEL-2 = assay: Growth inhibition of human SK-MEL-2 cells at 10 uM after 48 hrs by sulforhodamine B assay; format: functional
M14 = assay: Growth inhibition of human M14 cells at 10 uM after 48 hrs by sulforhodamine B assay; format: functional
NCI-H23 = assay: Growth inhibition of human NCI-H23 cells at 10 uM after 48 hrs by sulforhodamine B assay; format: functional
Malme-3M = assay: Growth inhibition of human MALME-3M cells at 10 uM after 48 hrs by sulforhodamine B assay; format: functional
SF-268 = assay: Growth inhibition of human SF268 cells at 10 uM after 48 hrs by sulforhodamine B assay; format: functional
TK-10 = assay: Growth inhibition of human TK10 cells at 10 uM after 48 hrs by sulforhodamine B assay; format: functional
SN12C = assay: Growth inhibition of human SN12C cells at 10 uM after 48 hrs by sulforhodamine B assay; format: functional; conditions: read-out: GI
NCI-H522 = assay: Growth inhibition of human NCI-H522 cells at 10 uM after 48 hrs by sulforhodamine B assay; format: functional
IGROV-1 = assay: Growth inhibition of human IGROV1 cells at 10 uM after 48 hrs by sulforhodamine B assay; format: functional
MDA-MB-468 = assay: Growth inhibition of human MDA-MB-468 cells at 10 uM after 48 hrs by sulforhodamine B assay; format: functional; conditions: MDA-MB-468, 48 h, read-out: GI
NCI-H322M = assay: Growth inhibition of human NCI-H322M cells at 10 uM after 48 hrs by sulforhodamine B assay; format: functional
OVCAR-3 = assay: Growth inhibition of human OVCAR3 cells at 10 uM after 48 hrs by sulforhodamine B assay; format: functional
SW-620 = assay: Growth inhibition of human SW620 cells at 10 uM after 48 hrs by sulforhodamine B assay; format: functional
SF-539 = assay: Growth inhibition of human SF539 cells at 10 uM after 48 hrs by sulforhodamine B assay; format: functional; conditions: SF-539, 48 h, read-out: GI
LOX IMVI = assay: Growth inhibition of human LOXIMVI cells at 10 uM after 48 hrs by sulforhodamine B assay; format: functional; conditions: read-out: GI
MCF7 = assay: Growth inhibition of human MCF7 cells at 10 uM after 48 hrs by sulforhodamine B assay; format: functional; conditions: MCF7, 48 h, read-out: GI
CCRF-CEM = assay: Growth inhibition of human CCRF-CEM cells at 10 uM after 48 hrs by sulforhodamine B assay; format: functional; conditions: read-out: GI
UACC-257 = assay: Growth inhibition of human UACC257 cells at 10 uM after 48 hrs by sulforhodamine B assay; format: functional
OVCAR-8 = assay: Growth inhibition of human OVCAR8 cells at 10 uM after 48 hrs by sulforhodamine B assay; format: functional

## NS(=O)(=O)c1cnccc1N1CCN(c2ccc(Cl)cc2)CC1
Carbonic anhydrase 9
  Ki: 135 nM
COLO 205
  growth inhibition (GI): inactive
HT-29
  inhibition of growth at 10 µM: 7%
786-0
  growth inhibition (GI): inactive
UACC-62
  inhibition of growth at 10 µM: 16%
HCC 2998
  growth inhibition (GI): inactive
UO-31
  inhibition of growth at 10 µM: 20%
RPMI-8226
  inhibition of growth at 10 µM: 25%
ACHN; read-out: GI
  inhibition of growth at 10 µM: 6%
PC-3
  inhibition of growth at 10 µM: 8%
RXF 393
  growth inhibition (GI): inactive
A498
  growth inhibition (GI): inactive
CAKI-1; CAKI-1, 48 h, read-out: GI
  inhibition of growth at 10 µM: 15%
OVCAR-5
  growth inhibition (GI): inactive
SR
  inhibition of growth at 10 µM: 11%
HCT-15; HCT-15, 48 h, read-out: GI
  inhibition of growth at 10 µM: 5%
SK-MEL-28
  growth inhibition (GI): inactive
NCI-H460
  growth inhibition (GI): inactive
Hs-578T
  growth inhibition (GI): inactive
DU-145
  growth inhibition (GI): inactive
HCT-116; HCT-116, 48 h, read-out: GI
  inhibition of growth at 10 µM: 5%
MOLT-4
  inhibition of growth at 10 µM: 25%
HL-60(TB)
  inhibition of growth at 10 µM: 1%
MDA-MB-231; MDA-MB-231, 48 h, read-out: GI
  inhibition of growth at 10 µM: 7%
HOP-62
  growth inhibition (GI): inactive
SNB-75
  growth inhibition (GI): inactive
SK-MEL-2
  growth inhibition (GI): inactive
M14; M14, 48 h, read-out: GI
  inhibition of growth at 10 µM: 1%
NCI-H23; NCI-H23, 48 h, read-out: GI
  inhibition of growth at 10 µM: 7%
Malme-3M
  growth inhibition (GI): inactive
SF-268
  growth inhibition (GI): inactive
TK-10
  growth inhibition (GI): inactive
SN12C
  inhibition of growth at 10 µM: 5%
NCI-H522; NCI-H522, 48 h, read-out: GI
  inhibition of growth at 10 µM: 8%
IGROV-1; IGROV-1, 48 h, read-out: GI
  inhibition of growth at 10 µM: 10%
MDA-MB-468
  inhibition of growth at 10 µM: 31%
NCI-H322M; read-out: GI
  inhibition of growth at 10 µM: 11%
OVCAR-3
  growth inhibition (GI): inactive
SW-620
  growth inhibition (GI): inactive
SF-539
  inhibition of growth at 10 µM: 8%
LOX IMVI
  inhibition of growth at 10 µM: 4%
MCF7
  inhibition of growth at 10 µM: 7%
CCRF-CEM
  inhibition of growth at 10 µM: 17%

## COc1ccccc1N1CCN(c2ccncc2S(N)(=O)=O)CC1
Carbonic anhydrase 9
  Ki: 652 nM
COLO 205
  growth inhibition (GI): inactive
HT-29
  inhibition of growth at 10 µM: 4%
UACC-257
  growth inhibition (GI): inactive
786-0; 786-0, 48 h, read-out: GI
  inhibition of growth at 10 µM: 3%
UACC-62
  inhibition of growth at 10 µM: 3%
OVCAR-8
  growth inhibition (GI): inactive
HCC 2998
  growth inhibition (GI): inactive
UO-31
  inhibition of growth at 10 µM: 10%
RPMI-8226
  inhibition of growth at 10 µM: 3%
ACHN
  growth inhibition (GI): inactive
PC-3
  inhibition of growth at 10 µM: 10%
RXF 393
  growth inhibition (GI): inactive
A498
  growth inhibition (GI): inactive
CAKI-1
  growth inhibition (GI): inactive
OVCAR-5; OVCAR-5, 48 h, read-out: GI
  inhibition of growth at 10 µM: 2%
SR
  inhibition of growth at 10 µM: 17%
HCT-15
  growth inhibition (GI): inactive
SK-MEL-28
  growth inhibition (GI): inactive
NCI-H460
  growth inhibition (GI): inactive
Hs-578T
  growth inhibition (GI): inactive
DU-145
  growth inhibition (GI): inactive
HCT-116
  growth inhibition (GI): inactive
MOLT-4
  inhibition of growth at 10 µM: 20%
MDA-MB-231
  growth inhibition (GI): inactive
HOP-62; HOP-62, 48 h, read-out: GI
  inhibition of growth at 10 µM: 2%
SNB-75; SNB-75, 48 h, read-out: GI
  inhibition of growth at 10 µM: 10%
SK-MEL-2; SK-MEL-2, 48 h, read-out: GI
  inhibition of growth at 10 µM: 5%
M14
  growth inhibition (GI): inactive
NCI-H23
  growth inhibition (GI): inactive
Malme-3M
  growth inhibition (GI): inactive
SF-268
  growth inhibition (GI): inactive
SN12C
  inhibition of growth at 10 µM: 11%
NCI-H522
  growth inhibition (GI): inactive
IGROV-1
  growth inhibition (GI): inactive
MDA-MB-468
  inhibition of growth at 10 µM: 2%
NCI-H322M
  growth inhibition (GI): inactive
OVCAR-3
  growth inhibition (GI): inactive
SW-620
  growth inhibition (GI): inactive
SF-539
  inhibition of growth at 10 µM: 5%
LOX IMVI
  inhibition of growth at 10 µM: 2%
MCF7
  inhibition of growth at 10 µM: 3%
CCRF-CEM
  inhibition of growth at 10 µM: 7%
